# Key:
# [1] = tested on: IMP producers rather than NDM/VIM producers; conditions: cited from earlier work
# IMP-1 = molecular target: T1, IMP-1 (Serratia marcescens, UniProt P52699); experiment: Inhibition of IPM hydrolysis by purified IMP-1, Ki by Lineweaver-Burk plots; type: biochemical
# T1 construct: made in house
# Description: (§1) MBL (10 nM) was mixed with the inhibitors and incubated for 5 min at 30°C. IPM was added to reach a concentration of 150 μM, and the velocity of IPM hydrolysis was monitored at 298 nm. The assay was performed at 30°C using 10 mM HEPES (pH 7.5) buffer containing 200 mM NaCl and 50 μg/ml bovine serum albumin (BSA) for IMP-1, NDM-1, VIM-2, and SMB-1. For SFH-1 and L1, another 10 mM HEPES (pH 7.5) buffer containing 200 mM NaCl, 20 μM ZnSO4, and 50 μg/ml BSA was used.
# (§2) Initial velocities (vo) were measured after varying the concentrations of IPM and inhibitors, and inverse velocities (1/vo) were plotted against inverse IPM concentrations […]. Lineweaver-Burk plots were constructed to obtain the inhibition constant (Ki) with the competitive inhibition model using the SigmaPlot 13 suite (Hulinks).
# VIM-2 = molecular target: T2, VIM-2 (Escherichia coli, UniProt Q5U7L7); experiment: Inhibition of IPM hydrolysis by purified VIM-2, Ki by Lineweaver-Burk plots; type: biochemical; conditions: IPM as substrate, competitive model, mean of three replicates; read-out: Inhibition constant Ki VIM-2
# T2 construct: made in house
# Description: as §1, §2
# NDM-1 = molecular target: T3, NDM-1 (Klebsiella pneumoniae, UniProt C7C422); experiment: Inhibition of IPM hydrolysis by purified NDM-1, Ki by Lineweaver-Burk plots; type: biochemical; conditions: IPM as substrate, competitive model, mean of three replicates; read-out: Inhibition constant Ki NDM-1
# T3 construct: made in house
# T3 sequence (C7C422 29-270 limits assumed): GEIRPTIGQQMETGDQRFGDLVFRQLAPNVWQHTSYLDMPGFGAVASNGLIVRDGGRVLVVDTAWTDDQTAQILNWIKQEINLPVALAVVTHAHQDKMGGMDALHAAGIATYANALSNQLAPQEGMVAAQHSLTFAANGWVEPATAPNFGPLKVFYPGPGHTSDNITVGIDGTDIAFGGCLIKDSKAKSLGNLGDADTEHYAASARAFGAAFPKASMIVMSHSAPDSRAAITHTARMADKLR
# Description: as §1, §2
# T1 sequence (P52699 19-246 limits assumed): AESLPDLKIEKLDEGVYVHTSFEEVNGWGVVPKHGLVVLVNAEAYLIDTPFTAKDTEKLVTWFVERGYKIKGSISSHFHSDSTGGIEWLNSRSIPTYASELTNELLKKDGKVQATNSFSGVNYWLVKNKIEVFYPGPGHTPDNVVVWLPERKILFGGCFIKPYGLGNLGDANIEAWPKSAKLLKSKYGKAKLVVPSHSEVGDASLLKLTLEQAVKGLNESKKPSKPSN
Compound,Selectivity between IMP and NDM/VIM producers [1],Ki (IMP-1) [µM],Ki (VIM-2) [µM],Ki (NDM-1) [µM]
CN1CCN(NC(=O)CN2C(=O)/C(=C/c3c(Cl)ccc(Cl)c3Cl)SC2=S)CC1 [ML302],superior for IMP,,,
NS(=O)(=O)c1sccc1C(=O)O [Compound 1],,34.1,15.5,7.69
"N[C@H](CN[C@H](CN[C@@H](CC(=O)O)C(=O)O)C(=O)O)C(=O)O [AMA, Aspergillomarasmine A]",superior for NDM/VIM,,,
"Cc1c(C(=O)O)c(S(N)(=O)=O)c(C)n1C1CC1 [Compound 9, 1-cyclopropyl-2,5-dimethyl-4-sulfamoylpyrrole-3-carboxylic acid]",,14.1,1.7,4.85
NS(=O)(=O)c1sc(Cl)cc1C(=O)O [Compound 2],,19.1,2.29,19.3
"Cc1c(C(=O)O)c(S(N)(=O)=O)c(C)n1C [Compound 7, 1,2,5-trimethyl-4-sulfamoylpyrrole-3-carboxylic acid]",,1.23,0.42,9.08
"NCCN[C@H]1CC[C@H](CC(=O)N[C@H]2Cc3cccc(C(=O)O)c3OB2O)CC1 [VNRX-5133, taniborbactam]",superior for NDM/VIM,,,
"CCCc1oc(CCC)c(S(N)(=O)=O)c1C(=O)O [Compound 5, 2,5-dipropyl-4-sulfamoylfuran-3-carboxylic acid]",,0.38,0.46,0.51
